# Reference: patent US12319674B2, “Isatin derivatives” (KING SAUD UNIVERSITY, priority 2020, dated 2025)
# Experiments:
# Assay in all cases: NCI-60 Human Tumor Cell Lines Screen, one-dose screen
# Type in all cases: cell-based
# [1] = tested on: Renal Cancer cells (CAKI-1); conditions: CAKI-1 cells, 10^-5 M, 2 days
# Experimental: (§1) Anticancer activities of the exemplary isatin derivatives were tested by the NIH National Cancer Institutes (NCI), with results summarized in FIGS. 2A-3B. The anticancer activity was tested by NCI, division of cancer treatment and diagnosis, according to the NCI-60 Human Tumor Cell Lines Screen, one-dose screen (https://dtp.cancer.gov/discovery_development/nci-60/methodology.htm). This screening allows for qualified synthesized chemicals to be subjected to an anticancer test against 60 different cancer cell lines. Briefly, exemplary T1 or T2 was dissolved in DMSO:Glycerol, 9:1, at 4 mmol and kept frozen prior to use. For inoculation, a 96 well microtiter was used for the study of different cell lines. Based on the doubling time for each cell line, the well density varied. The plates were incubated at 37° ° C., 5% CO2, 95% air and 100% relative humidity for 1 day. The exemplary T1 or T2 or a control were added to the plates at a concentration of 10^−5 M. After 2 more days, the plates were fixed and stained to identify growth inhibition relative to cells without drug treatment. Anti-proliferative activity was determined based on careful analysis of historical DTP screening data. Cell death and net growth inhibition were determined based on a time zero control. A value of 100 indicates no growth inhibition. A value of 40 indicates 60% growth inhibition. A value of 0 indicates no net growth over the course of the experiment. A value of −40 indicates 40% lethality.
# [2] = tested on: Non-Small Cell Lung Cancer cells (EKVX); conditions: 10^-5 M, 2 days
# Experimental: as §1
# [3] = tested on: Melanoma cells (MDA-MB-435); conditions: MDA-MB-435 cells, 10^-5 M, 2 days
# Experimental: as §1
# [4] = tested on: Breast Cancer cells (MDA-MB-468); conditions: MDA-MB-468 cells, 10^-5 M, 2 days
# Experimental: as §1
SMILES,anticancer activity compared to control (reduction) [1] [%],anticancer activity compared to control (reduction) [2] [%],anticancer activity compared to control (reduction) [3] [%],anticancer activity compared to control (reduction) [4] [%]
"O=C1Nc2ccccc2/C1=N\N=Cc1cccs1 [T1, 3-((E)-(thiophen-2-ylmethylene)hydrazono)indolin-2-one]",~48,~54,~83,
"O=C1Nc2ccc(Cl)cc2/C1=N/N=C/c1ccsc1 [T2, 5-chloro-3-((E)-(thiophen-3-ylmethylene) hydrazono) indolin-2-one]",,,,~73
